Patent US20250228806A1, “AMPK ACTIVATOR, MOTOR FUNCTION IMPROVING AGENT, MUSCULAR ENDURANCE IMPROVING AGENT, AND MUSCLE ATROPHY PREVENTING AGENT” (MARUZEN PHARMACEUTICALS CO., LTD., priority 2021, published 2025)

Columns and labels:
[1] = tested on: rat muscle atrophy model; assay: Muscle atrophy preventing action test (hindlimb suspension); format: in vivo
Protocol: Using the compound (I) (Sample 1), the muscle atrophy preventing action on a rat muscle atrophy model was tested in the following manner. Eight-week-old male Crlj:WI rats (purchased from Charles River Laboratories Japan, Inc.) were reared in an maintained environment of controlled temperature: 20.0-26.0° C., controlled humidity: 40.0-70.0% RH, light and dark for 12 hours each, and ventilation frequency: 12 times/hour. During the rearing period, solid feed (CRF-1, available from Oriental Yeast Co., Ltd.) was placed in a feeder and consumed ad libitum. However, during the hindlimb suspension rearing period described below, the rats were allowed to consume the feed by scattering it on the floor. For drinking water, tap water was available ad libitum using a water bottle. After a 5-day quarantine period and a 2-day acclimatization period, the rats were grouped with 8 rats per group as listed in Table 1 by random sampling so that the average weight and variance of each group were approximately equal. The rats were put into a state in which the tails of the rats were attached to a rail on the ceiling with a rat tail suspension clip and the hindlimbs of the rats were off the floor (hindlimb suspension), and muscle atrophy was induced in this state by rearing the rats for 14 days after the grouping on the grouping day. During the period of rearing with suspended hindlimbs, the rats were able to move within the rearing cage using their forelimbs, and were able to freely consume water and feed. The compound (I) (Sample 1) was dissolved in water for injection and administered orally by force using a syringe to which a feeding needle was attached. The grouping day was taken as the first day (day 1 of administration), the administration was performed once a day for 14 days, and the day after the 14th day of administration (day 15 of administration) was the last day of the rearing period. On the last day of the hindlimb suspension rearing (day 15 of administration), blood was collected from the abdominal aorta using a heparin-Na treated vacuum blood collection tube and a winged intravenous needle under isoflurane anesthesia. After blood collection, the rats were euthanized by exsanguination from the abdominal aorta, and the right and left gastrocnemius and soleus muscles were extracted. The extracted gastrocnemius and soleus muscles were weighed separately on the right and left sides (the values in Table 2 are the total values).

[2] = tested on: GLUT4 (Gene Symbol: Slc2a4); assay: Gene expression analysis (real-time PCR) in gastrocnemius muscle of muscle atrophy model: GLUT4; format: in vivo, rat
Protocol: (§1) A gene expression analysis test using real-time PCR was conducted on the gastrocnemius muscle extracted in Testing Example 1 above. The tissue of the gastrocnemius muscle extracted in Testing Example 1 above was fragmented, and total RNA was extracted using RNeasy® Lipid Tissue Mini Kit (available from Qiagen). The obtained total RNA was quantified using a spectrophotometer, and the total RNA was prepared to be 71.4 ng/μL. Using 1000 ng of the total RNA as a template, a reverse transcription reaction was performed using SuperScript® VILO™ CDNA Synthesis Kit (available from Thermo Fisher Scientific). The reaction solution was 20 μL, and the operation was based on the manual attached to the above kit. […] Assay mixes corresponding to the genes to be analyzed were prepared for respective genes using corresponding Taqman® Gene Expression Assays (the assay ID for each gene is described previously). […] After the reaction was completed, the Ct value was calculated using analysis software (Fluidigm Real Time PCR Analysis 4.5.2, available from Fluidigm). The obtained Ct value of each gene was standardized with the Ct value of the internal standard gene GAPDH, and the relative value was calculated when the first group (control group) was set as the standard (1.00).

[3] = tested on: Atrogin-1 (Gene Symbol: Fbxo32); assay: Gene expression analysis (real-time PCR) in gastrocnemius muscle of muscle atrophy model: Atrogin-1; format: in vivo, rat
Protocol: as §1

[4] = tested on: IL-6 (Gene Symbol: Il6); assay: Gene expression analysis (real-time PCR) in gastrocnemius muscle of muscle atrophy model: IL-6; format: in vivo, rat
Protocol: as §1

[5] = tested on: MuRF-1 (Gene Symbol: Trim63); assay: Gene expression analysis (real-time PCR) in gastrocnemius muscle of muscle atrophy model: MuRF-1; format: in vivo, rat
Protocol: as §1

[6] = tested on: Akt; assay: Kinase activation analysis in muscle atrophy model: Akt phosphorylation (Luminex); format: in vivo, rat; conditions: gastrocnemius muscle
Protocol: (§2) For the gastrocnemius muscle extracted in Testing Example 1 above, the phosphorylation state of AMPK and Akt, which are kinases contributing to increase in muscle mass, was evaluated by Luminex measurement and ELISA measurement.
(§3) The tissue of the gastrocnemius muscle extracted in Testing Example 1 above was fragmented, and a tissue extract was collected. The total protein concentration was quantified and used for Luminex measurement and ELISA measurement described below so that the total protein amount was 10 μg per well.
For Akt, MILLIPLEX® MAP Phospho/Total Akt 2-Plex Magnetic Bead Kit 96-well Plate Assay (available from EMD Millipore, catalog number: 48-618MAG) was used to measure the total Akt amount (t-Akt) and the phosphorylated Akt (p-Akt, Ser473) all at once in one reaction system.
(§4) As an internal standard, GAPDH was measured using Total GAPDH Magnetic Bead MAPmate™ (available from EMD Millipore, catalog number: 46-667MAG), and the measured values of the above AMPK and Akt were standardized.

[7] = tested on: PGC-1α (Gene Symbol: Ppargc1a); assay: Gene expression analysis (real-time PCR) in gastrocnemius muscle of muscle atrophy model: PGC-1α; format: in vivo, rat
Protocol: as §1

[8] = tested on: AMPK; assay: Kinase activation analysis in muscle atrophy model: AMPK phosphorylation (ELISA); format: in vivo, rat; conditions: gastrocnemius muscle
Protocol: as §2, §3
For AMPK, PathScan® Total AMPKα Sandwich ELISA Kit (available from Cell Signaling Technology, catalog number: 7961C) was used to measure the total AMPK (t-AMPK), and PathScan® Phospho-AMPKα (Thr172) ELISA Sandwich Kit (available from Cell Signaling Technology, catalog number: 7959C) was used to measure the Thr172 phosphorylated AMPK (p-AMPK).
as §4

[9] = administration group 125 mg/kg vs control group
[10] = 125 mg/kg orally 14 days, standardized with GAPDH

COc1cc(CCC(=O)O)ccc1O [compound (I), 3-(4-hydroxy-3-methoxyphenyl) propionic acid]
difference in body weight between groups (in words) [1, 9]: no difference was observed | weight of the gastrocnemius muscle compared to control group (in words) [1, 9]: increased | weight of the soleus muscle compared to control group (in words) [1, 9]: increased | muscle mass (in words) ([1]; administration of 125 mg/kg, rat muscle atrophy model): increased | Gastrocnemius muscle (total of right and left) weight ([1]; hindlimb-suspended rats, 125 mg/kg orally once a day for 14 days, day 15, control 2.50): 2.69 g | Soleus muscle (total of right and left) weight ([1]; hindlimb-suspended rats, 125 mg/kg orally once a day for 14 days, day 15, control 130.3): 149.1 mg | Body weight ([1]; hindlimb-suspended rats, 125 mg/kg orally once a day for 14 days, day 15, control 310): 309 g | GLUT4 (Slc2a4) gene expression, relative value (control group = 1.00) [2, 10]: 1.13 | GLUT4 gene expression compared to control group (in words) ([2]; administration group 125 mg/kg): tendency to increase | Atrogin-1 (Fbxo32) gene expression, relative value (control group = 1.00) [3, 10]: 0.68 | Atrogin-1 gene expression compared to control group (in words) ([3]; administration group 125 mg/kg): tendency to decrease | IL-6 (Il6) gene expression, relative value (control group = 1.00) [4, 10]: 1.10 | IL-6 gene expression compared to control group (in words) ([4]; administration group 125 mg/kg): tendency to increase | MuRF-1 (Trim63) gene expression, relative value (control group = 1.00) [5, 10]: 0.81 | MuRF-1 gene expression compared to control group (in words) ([5]; administration group 125 mg/kg): tendency to decrease | p-Akt/t-Akt ([6]; 125 mg/kg orally 14 days, Ser473, standardized with GAPDH, control group 100.0): 172.9 | phosphorylated form of Akt compared to control group (in words) ([6]; administration group 125 mg/kg): tendency to increase | PGC-1α (Ppargc1a) gene expression, relative value (control group = 1.00) [7, 10]: 1.28 | PGC-1α gene expression compared to control group (in words) ([7]; administration group 125 mg/kg): tendency to increase | p-AMPK/t-AMPK ([8]; 125 mg/kg orally 14 days, Thr172, standardized with GAPDH, control group 100.0): 120.8 | phosphorylated form of AMPK compared to control group (in words) ([8]; administration group 125 mg/kg): tendency to increase
